Experimental data: patent US20100317524A1, “Sulfonylureas” (Bayer CropScience AG, priority 2005, published 2010)

tested on: weed plants such as Sinapis alba, Chrysanthemum segetum, Avena sativa, Stellaria media, Echinochloa crus-galli, Lolium multiflorum, Setaria viridis, Abutilon …; assay: Pre-emergence effect on weeds (greenhouse pot test, visual scoring); format: in vivo; conditions: applied pre-emergence at a rate of 0.3 kg or less of active substance per hectare; visual scoring after 3 to 4 weeks vs untreated controls
Description: Seeds or sections of rhizome from monocot and dicot weed plants were laid out in sandy loam soil in cardboard pots, and covered with soil. The compounds of the invention, formulated as wettable powders or emulsifiable concentrates, were then applied, in the form of aqueous suspensions or emulsions, at various dosages, onto the surface of the covering earth, at an application rate of 600 to 800 l of water per hectare (converted). Following the treatment, the pots were placed in a greenhouse and maintained under good growth conditions for the weeds. Visual scoring of the plant damage or emergence damage was made when the test plants had emerged, after a test time of 3 to 4 weeks, in comparison to untreated controls.

Row | Structure (SMILES) | herbicidal action against weed plants, pre-emergence
1 | COc1cc(Cl)nc(NC(=O)NS(=O)(=O)c2c(OC)ccc(Cl)c2I)n1 [Compound 1.601] | very good herbicidal action
2 | CCC(C)Oc1cccc(I)c1S(=O)(=O)NC(=O)Nc1nc(C)cc(C)n1 (stereo not shown) [Compound 1.558] | very good herbicidal action
3 | COc1nc(NC(=O)NS(=O)(=O)c2c(I)cccc2OS(=O)(=O)N(C)C)nc(OC)n1 [Compound 1.511] | very good herbicidal action
4 | COc1nc(NC(=O)NS(=O)(=O)c2c(I)cccc2OCC(F)(F)C(F)(F)F)nc(OC)n1 [Compound 1.373] | very good herbicidal action
5 | Cc1cc(C)nc(NC(=O)NS(=O)(=O)c2c(I)cccc2OCC(F)F)n1 [Compound 1.353] | very good herbicidal action
6 | COc1cc(Cl)nc(NC(=O)NS(=O)(=O)c2c(I)cccc2OC(F)(F)F)n1 [Compound 1.311] | very good herbicidal action
7 | COc1cc(OC)nc(NC(=O)NS(=O)(=O)c2c(I)cccc2OS(C)(=O)=O)n1 [Compound 1.463] | very good herbicidal action
8 | COc1nc(NC(=O)NS(=O)(=O)c2c(I)cccc2OC(C)C)nc(OC)n1 [Compound 1.191] | very good herbicidal action
9 | CSc1cccc(I)c1S(=O)(=O)NC(=O)Nc1nc(C)cc(C)n1 [Compound 1.550] | very good herbicidal action
10 | Cc1cc(C)nc(NC(=O)NS(=O)(=O)c2c(I)cccc2OC(F)(F)F)n1 [Compound 1.310] | very good herbicidal action
11 | COc1nc(NC(=O)NS(=O)(=O)c2c(I)cccc2C(F)(F)F)nc(OC)n1 [Compound 1.104] | very good herbicidal action
12 | COc1nc(NC(=O)NS(=O)(=O)c2c(I)cccc2OC(C)C(F)(F)F)nc(OC)n1 (stereo not shown) [Compound 1.366] | very good herbicidal action
13 | Cc1cc(C)nc(NC(=O)NS(=O)(=O)c2c(I)cccc2OCC(F)(F)C(F)(F)F)n1 [Compound 1.371] | very good herbicidal action
14 | COc1cc(Cl)nc(NC(=O)NS(=O)(=O)c2c(I)cccc2OCC2CC2)n1 [Compound 1.238] | very good herbicidal action
15 | COc1nc(C)nc(NC(=O)NS(=O)(=O)c2c(I)cccc2C(F)(F)F)n1 [Compound 1.095] | very good herbicidal action
16 | COc1nc(C)nc(NC(=O)NS(=O)(=O)c2c(I)cccc2OC(C)C(F)(F)F)n1 (stereo not shown) [Compound 1.363] | very good herbicidal action
17 | CCCCOc1cccc(I)c1S(=O)(=O)NC(=O)Nc1nc(OC)cc(OC)n1 [Compound 1.192] | very good herbicidal action
18 | Cc1cc(C)nc(NC(=O)NS(=O)(=O)c2c(I)cccc2OCC(F)(F)F)n1 [Compound 1.343] | very good herbicidal action
19 | COc1cc(Cl)nc(NC(=O)NS(=O)(=O)c2c(I)cccc2OC)n1 [Compound 1.155] | very good herbicidal action

Row | Structure (SMILES) | herbicidal action against weed plants, pre-emergence
20 | COc1cc(Cl)nc(NC(=O)NS(=O)(=O)c2c(I)cccc2OC(F)F)n1 [Compound 1.330] | very good herbicidal action
21 | COc1nc(C)nc(NC(=O)NS(=O)(=O)c2c(I)cccc2OCC(F)F)n1 [Compound 1.352] | very good herbicidal action
22 | COc1cc(OC)nc(NC(=O)NS(=O)(=O)c2c(I)cccc2OS(=O)(=O)N(C)C)n1 [Compound 1.507] | very good herbicidal action
23 | COc1cc(Cl)nc(NC(=O)NS(=O)(=O)c2c(I)cccc2OC(C)C(F)(F)F)n1 (stereo not shown) [Compound 1.365] | very good herbicidal action
24 | CCOc1cccc(I)c1S(=O)(=O)NC(=O)Nc1nc(C)cc(C)n1 [Compound 1.166] | very good herbicidal action
25 | CCC(C)Oc1cccc(I)c1S(=O)(=O)NC(=O)Nc1nc(OC)nc(OC)n1 (stereo not shown) [Compound 1.560] | very good herbicidal action
26 | COc1cc(OC)nc(NC(=O)NS(=O)(=O)c2c(C)cccc2I)n1 [Compound 1.012] | very good herbicidal action
27 | COc1cc(Cl)nc(NC(=O)NS(=O)(=O)c2c(I)cccc2OCC(F)F)n1 [Compound 1.354] | very good herbicidal action
28 | CCOc1cccc(I)c1S(=O)(=O)NC(=O)Nc1nc(Cl)cc(OC)n1 [Compound 1.167] | very good herbicidal action
29 | COc1nc(C)nc(NC(=O)NS(=O)(=O)c2c(I)cccc2OC)n1 [Compound 1.150] | very good herbicidal action
30 | Cc1cc(C)nc(NC(=O)NS(=O)(=O)c2c(I)cccc2C(F)(F)F)n1 [Compound 1.099] | very good herbicidal action
31 | COc1cc(OC)nc(NC(=O)NS(=O)(=O)c2c(I)cccc2SC)n1 [Compound 1.389] | very good herbicidal action
32 | COc1cc(Cl)nc(NC(=O)NS(=O)(=O)c2c(F)cccc2I)n1 [Compound 1.004] | very good herbicidal action
33 | COc1nc(C)nc(NC(=O)NS(=O)(=O)c2c(I)cccc2OCC(F)(F)C(F)(F)F)n1 [Compound 1.370] | very good herbicidal action
34 | COc1nc(C)nc(NC(=O)NS(=O)(=O)c2c(C)cccc2I)n1 [Compound 1.016] | very good herbicidal action
35 | CCCCOc1cccc(I)c1S(=O)(=O)NC(=O)Nc1nc(C)cc(C)n1 [Compound 1.554] | very good herbicidal action
36 | CCCOc1cccc(I)c1S(=O)(=O)NC(=O)Nc1nc(C)cc(C)n1 [Compound 1.173] | very good herbicidal action
37 | CCCCOc1cccc(I)c1S(=O)(=O)NC(=O)Nc1nc(OC)nc(OC)n1 [Compound 1.556] | very good herbicidal action
38 | CCC(C)Oc1cccc(I)c1S(=O)(=O)NC(=O)Nc1nc(OC)cc(OC)n1 (stereo not shown) [Compound 1.196] | very good herbicidal action

tested on: weed plants such as Sinapis alba, Echinochloa crus-galli, Lolium multiflorum, Chrysanthemum segetum, Setaria viridis, Abutilon theophrasti, Amaranthus …; assay: Post-emergence effect on weeds (greenhouse pot test, visual scoring); format: in vivo; conditions: applied post-emergence (three-leaf stage) at a rate of 0.3 kg or less of active substance per hectare; visual scoring after about 3 to 4 weeks vs untreated controls
Description: Seeds or sections of rhizome from monocot and dicot broadleaf weeds were laid out in sandy loam soil in plastic pots, covered with earth, and cultivated in a greenhouse under good growth conditions. Three weeks after sowing, the test plants were treated at the three-leaf stage. The compounds of the invention, formulated as wettable powders or as emulsion concentrates, were sprayed in different dosages onto the green parts of the plants, at an application rate of 600 to 800 l of water per hectare (converted). After the test plants had stood in the greenhouse under optimum growth conditions for a period of about 3 to 4 weeks, the effect of the products was scored visually in comparison to untreated controls.

Row | Structure (SMILES) | herbicidal action against weed plants, post-emergence
39 | COc1cc(Cl)nc(NC(=O)NS(=O)(=O)c2c(OC)ccc(Cl)c2I)n1 [Compound 1.601] | very good herbicidal action
40 | CCC(C)Oc1cccc(I)c1S(=O)(=O)NC(=O)Nc1nc(C)cc(C)n1 (stereo not shown) [Compound 1.558] | very good herbicidal action
41 | COc1nc(NC(=O)NS(=O)(=O)c2c(I)cccc2OS(=O)(=O)N(C)C)nc(OC)n1 [Compound 1.511] | very good herbicidal action
42 | COc1nc(NC(=O)NS(=O)(=O)c2c(I)cccc2OCC(F)(F)C(F)(F)F)nc(OC)n1 [Compound 1.373] | very good herbicidal action
43 | Cc1cc(C)nc(NC(=O)NS(=O)(=O)c2c(I)cccc2OCC(F)F)n1 [Compound 1.353] | very good herbicidal action
44 | COc1cc(Cl)nc(NC(=O)NS(=O)(=O)c2c(I)cccc2OC(F)(F)F)n1 [Compound 1.311] | very good herbicidal action
45 | COc1cc(OC)nc(NC(=O)NS(=O)(=O)c2c(I)cccc2OS(C)(=O)=O)n1 [Compound 1.463] | very good herbicidal action
46 | COc1nc(NC(=O)NS(=O)(=O)c2c(I)cccc2OC(C)C)nc(OC)n1 [Compound 1.191] | very good herbicidal action
47 | CSc1cccc(I)c1S(=O)(=O)NC(=O)Nc1nc(C)cc(C)n1 [Compound 1.550] | very good herbicidal action
48 | Cc1cc(C)nc(NC(=O)NS(=O)(=O)c2c(I)cccc2OC(F)(F)F)n1 [Compound 1.310] | very good herbicidal action
49 | COc1nc(NC(=O)NS(=O)(=O)c2c(I)cccc2C(F)(F)F)nc(OC)n1 [Compound 1.104] | very good herbicidal action
50 | COc1nc(NC(=O)NS(=O)(=O)c2c(I)cccc2OC(C)C(F)(F)F)nc(OC)n1 (stereo not shown) [Compound 1.366] | very good herbicidal action
51 | Cc1cc(C)nc(NC(=O)NS(=O)(=O)c2c(I)cccc2OCC(F)(F)C(F)(F)F)n1 [Compound 1.371] | very good herbicidal action
52 | COc1cc(Cl)nc(NC(=O)NS(=O)(=O)c2c(I)cccc2OCC2CC2)n1 [Compound 1.238] | very good herbicidal action
53 | COc1nc(C)nc(NC(=O)NS(=O)(=O)c2c(I)cccc2C(F)(F)F)n1 [Compound 1.095] | very good herbicidal action
54 | COc1nc(C)nc(NC(=O)NS(=O)(=O)c2c(I)cccc2OC(C)C(F)(F)F)n1 (stereo not shown) [Compound 1.363] | very good herbicidal action
55 | CCCCOc1cccc(I)c1S(=O)(=O)NC(=O)Nc1nc(OC)cc(OC)n1 [Compound 1.192] | very good herbicidal action
56 | Cc1cc(C)nc(NC(=O)NS(=O)(=O)c2c(I)cccc2OCC(F)(F)F)n1 [Compound 1.343] | very good herbicidal action
57 | COc1cc(Cl)nc(NC(=O)NS(=O)(=O)c2c(I)cccc2OC)n1 [Compound 1.155] | very good herbicidal action

Row | Structure (SMILES) | herbicidal action against weed plants, post-emergence
58 | COc1cc(Cl)nc(NC(=O)NS(=O)(=O)c2c(I)cccc2OC(F)F)n1 [Compound 1.330] | very good herbicidal action
59 | COc1nc(C)nc(NC(=O)NS(=O)(=O)c2c(I)cccc2OCC(F)F)n1 [Compound 1.352] | very good herbicidal action
60 | COc1cc(OC)nc(NC(=O)NS(=O)(=O)c2c(I)cccc2OS(=O)(=O)N(C)C)n1 [Compound 1.507] | very good herbicidal action
61 | COc1cc(Cl)nc(NC(=O)NS(=O)(=O)c2c(I)cccc2OC(C)C(F)(F)F)n1 (stereo not shown) [Compound 1.365] | very good herbicidal action
62 | CCOc1cccc(I)c1S(=O)(=O)NC(=O)Nc1nc(C)cc(C)n1 [Compound 1.166] | very good herbicidal action
63 | CCC(C)Oc1cccc(I)c1S(=O)(=O)NC(=O)Nc1nc(OC)nc(OC)n1 (stereo not shown) [Compound 1.560] | very good herbicidal action
64 | COc1cc(OC)nc(NC(=O)NS(=O)(=O)c2c(C)cccc2I)n1 [Compound 1.012] | very good herbicidal action
65 | COc1cc(Cl)nc(NC(=O)NS(=O)(=O)c2c(I)cccc2OCC(F)F)n1 [Compound 1.354] | very good herbicidal action
66 | CCOc1cccc(I)c1S(=O)(=O)NC(=O)Nc1nc(Cl)cc(OC)n1 [Compound 1.167] | very good herbicidal action
67 | COc1nc(C)nc(NC(=O)NS(=O)(=O)c2c(I)cccc2OC)n1 [Compound 1.150] | very good herbicidal action
68 | Cc1cc(C)nc(NC(=O)NS(=O)(=O)c2c(I)cccc2C(F)(F)F)n1 [Compound 1.099] | very good herbicidal action
69 | COc1cc(OC)nc(NC(=O)NS(=O)(=O)c2c(I)cccc2SC)n1 [Compound 1.389] | very good herbicidal action
70 | COc1cc(Cl)nc(NC(=O)NS(=O)(=O)c2c(F)cccc2I)n1 [Compound 1.004] | very good herbicidal action
71 | COc1nc(C)nc(NC(=O)NS(=O)(=O)c2c(I)cccc2OCC(F)(F)C(F)(F)F)n1 [Compound 1.370] | very good herbicidal action
72 | COc1nc(C)nc(NC(=O)NS(=O)(=O)c2c(C)cccc2I)n1 [Compound 1.016] | very good herbicidal action
73 | CCCCOc1cccc(I)c1S(=O)(=O)NC(=O)Nc1nc(C)cc(C)n1 [Compound 1.554] | very good herbicidal action
74 | CCCOc1cccc(I)c1S(=O)(=O)NC(=O)Nc1nc(C)cc(C)n1 [Compound 1.173] | very good herbicidal action
75 | CCCCOc1cccc(I)c1S(=O)(=O)NC(=O)Nc1nc(OC)nc(OC)n1 [Compound 1.556] | very good herbicidal action
76 | CCC(C)Oc1cccc(I)c1S(=O)(=O)NC(=O)Nc1nc(OC)cc(OC)n1 (stereo not shown) [Compound 1.196] | very good herbicidal action
